Test results taken from patent US20250170149A1, “NEUROACTIVE STEROIDS FOR TREATMENT OF GASTROINTESTINAL DISEASES OR CONDITIONS” (Sage Therapeutics, Inc., priority 2022, published 2025).
Entries after “also recorded” stand apart in the source; their conditions may differ. Read-outs that look alike come from different tables or passages of the source.

What was measured:
[1] = test system: patients with major depressive disorder (MDD); settings: cited from earlier work; for rates of gastrointestinal adverse reactions compared to placebo, words: 15 most commonly used antidepressants in MDD, Oliva V, et al. 2021; for gastrointestinal tolerability among antidepressants, words: Oliva V. et al. 2021 meta-analysis in MDD
[2] = test system: participants with major depressive disorder (MDD); experiment: Treatment-emergent adverse events (TEAEs) and serious AEs in study NCT04476030, safety set; type: in vivo, human; settings: one patient, about 1 hour after zuranolone 50 mg on Day 7; resolved within 22 minutes
Procedure: A randomized, double-blind, parallel-group, active/placebo-controlled study (NCT04476030) in participants with major depressive disorder (MDD) was conducted. The study evaluated the efficacy and safety of zuranolone 50 mg co-initiated with standard-of-care (SOC) antidepressant therapies (ADTs) (zuranolone+ADT) vs placebo co-initiated with SOC ADT (placebo+ADT) in adults with MDD. Patients were randomized 1:1 to once-daily, blinded zuranolone +ADT or placebo+ADT for 14 days then continued open-label SOC ADT for 28 more days.
An AE could therefore be any unfavorable and unintended sign (including an abnormal laboratory finding), symptom or disease temporally associated with the use of a medicinal (investigational) product whether or not related to the medicinal (investigational) product. In clinical studies, an AE could include an undesirable medical condition occurring at any time, including baseline or washout periods, even if no study treatment had been administered.
A treatment emergent adverse event (TEAE) was defined as an AE with onset after the start of investigational product (IP), or any worsening of a pre-existing medical condition/AE with onset after the start of IP and throughout the study. The term IP included any Sage IP, a comparator, or a placebo administered in a clinical study. […]

SMILES	rates of gastrointestinal adverse reactions compared to placebo, words [1]	further results
COc1ccc2cccc(CCNC(C)=O)c2c1 [agomelatine]	higher rates of gastrointestinal adverse reactions	
CC(NC(C)(C)C)C(=O)c1cccc(Cl)c1 (stereo not drawn) [bupropion]	higher rates of gastrointestinal adverse reactions	
CN(C)CCCC1(c2ccc(F)cc2)OCc2cc(C#N)ccc21 (stereo not drawn) [citalopram]	higher rates of gastrointestinal adverse reactions	
CN(C)CC(c1ccc(O)cc1)C1(O)CCCCC1 (stereo not drawn) [desvenlafaxine]	higher rates of gastrointestinal adverse reactions	
CNCC[C@H](Oc1cccc2ccccc12)c1cccs1 [duloxetine]	higher rates of gastrointestinal adverse reactions	
CN(C)CCC[C@@]1(c2ccc(F)cc2)OCc2cc(C#N)ccc21 [escitalopram]	higher rates of gastrointestinal adverse reactions	gastrointestinal tolerability among antidepressants, words [1]: least tolerated antidepressants on the gastrointestinal tract; gastrointestinal tolerability among antidepressants, words ([1]; listed as Escitalopram): least tolerated antidepressants on the GI tract
CNCCC(Oc1ccc(C(F)(F)F)cc1)c1ccccc1 (stereo not drawn) [fluoxetine]	higher rates of gastrointestinal adverse reactions	
COCCCC/C(=N\OCCN)c1ccc(C(F)(F)F)cc1 [fluvoxamine]	higher rates of gastrointestinal adverse reactions	
CCN(CC)C(=O)[C@@]1(c2ccccc2)C[C@H]1CN [levomilnacipran]	higher rates of gastrointestinal adverse reactions	
CN1CCN2c3ncccc3Cc3ccccc3C2C1 (stereo not drawn) [mirtazapine]	higher rates of gastrointestinal adverse reactions	
Fc1ccc([C@@H]2CCNC[C@H]2COc2ccc3c(c2)OCO3)cc1 [paroxetine]	higher rates of gastrointestinal adverse reactions	
CCOc1ccccc1OC(c1ccccc1)C1CNCCO1 (stereo not drawn) [reboxetine]	higher rates of gastrointestinal adverse reactions	
CN[C@H]1CC[C@@H](c2ccc(Cl)c(Cl)c2)c2ccccc21 [sertraline]	higher rates of gastrointestinal adverse reactions	gastrointestinal tolerability among antidepressants, words [1]: least tolerated antidepressants on the gastrointestinal tract; also recorded: least tolerated antidepressants on the GI tract; incidence of diarrhea, words ([1]; compared to other SSRIs and venlafaxine, Gartlehner G, et al. 2011): higher incidence of diarrhea
COc1ccc(C(CN(C)C)C2(O)CCCCC2)cc1 (stereo not drawn) [venlafaxine]	higher rates of gastrointestinal adverse reactions	rates of nausea and vomiting, words ([1]; compared to SSRIs and duloxetine, Gartlehner G, et al. 2011): higher rates of nausea and vomiting
Cc1ccc(Sc2ccccc2N2CCNCC2)c(C)c1 [vortioxetine]	higher rates of gastrointestinal adverse reactions	
C[C@@]1(O)CC[C@H]2[C@H](CC[C@@H]3[C@@H]2CC[C@]2(C)[C@@H](C(=O)Cn4cc(C#N)cn4)CC[C@@H]32)C1 [zuranolone]		serious TEAE assessed as related to zuranolone by the investigator [2]: seizure-like phenomenon; also recorded: seizure-like phenomena
